From patent US7678808B2, “5 HT receptor mediated neurogenesis” (BrainCells, Inc., priority 2006, dated 2010)
Entries after “also recorded” stand apart in the source; their conditions may differ.

What was measured:
[1] = tested on: human neural stem cells (hNSCs); assay: Neuronal differentiation of human neural stem cells (TUJ-1 staining); type: cell-based; details: agent alone; hNSC; data as % of neuronal positive control, basal media subtracted
Source text: Mitogen-free test media with a positive control was used for neuronal differentiation, and basal media without growth factors served as a negative control.
Mitogen-free test media with a positive control for neuronal differentiation was used, and basal media without growth factors served as a negative control.
(§1) Human neural stem cells (hNSCs) were isolated and grown in monolayer culture, plated, treated with varying concentrations of buspirone in the presence or absence of the melatonin agonist melatonin, and stained with TUJ-1 antibody for the detection of neuronal differentiation or GFAP antibody for the detection of astrocyte differentiation, as described above. Mitogen-free test media with a positive control for neuronal differentiation was used along with basal media without growth factors as a negative control.
(§2) Human neural stem cells (hNSCs) were isolated and grown in monolayer culture, plated, treated with varying concentrations of a 5-HT3 antagonist and stained with TUJ-1 antibody, as described above. Mitogen-free test media with a positive control for neuronal differentiation was used along with basal media without growth factors as a negative control.
as §2, with “5-HT4 agonist” for “5-HT3 antagonist”
The presence of synergy was determined by use of a combination index (CI). […] The CI is a quantitative measure of the nature of drug interactions, comparing the EC50's of two compounds, when each is assayed alone, to the EC50 of each compound when assayed in combination. The combination index (CI) is equal to the following formula: […]
where C1 and C2 are the concentrations of a first and a second compound, respectively, resulting in 50% activity in neuronal differentiation when assayed in combination; and IC1 and IC2 are the concentrations of each compound resulting in 50% activity when assayed independently.

[2] = tested on: human neural stem cells (hNSCs); assay: Astrocyte differentiation of hNSCs (GFAP staining); type: cell-based
Description: Experiments were carried out as described in Example 1, except the positive control for astrocyte differentiation contained mitogen-free test media with a positive control, and cells were stained with GFAP antibody.
Experiments were carried out as described in Example 2, except the positive control for astrocyte differentiation contained mitogen-free test media with a different positive control.
as §1

Male F344 rats [3] = assay: Novel Object Recognition (NOR) cognition assay; type: in vivo, rat; details: buspirone 0.5 and 5.0 mg/kg i.p., 1x per day for 28 days
Source text: The apparatus consisted of an open field (45×45×50 cm high) made of polycarbonate. Triplicate copies were used of the objects to be discriminated. Care was taken to ensure that the pair of objects tested were made from the same material so that they could not be distinguished readily by olfactory cues although they had very different appearances.
Each test session consisted of two phases. In the initial familiarization phase, two identical objects (A1 and A2) were placed in the far corners of the box arena. A rat was then placed in the middle of the arena and allowed 15 minutes to explore both objects. Exploration of an object was defined as directing the nose to the object at a distance of less than 2 cm and/or touching it with the nose. After a delay of 48-hours the rat was re-introduced to the arena (“test phase”). The box now contained a third identical copy of the familiar object (A3) and a new object (B). These were placed in the same locations as the sample stimuli, whereby the position (left or right) of the novel object in the test phase was balanced between rats. For half the rats, object A was the sample and object B was the novel alternative. The test phase was 15 minutes in duration, with the first 30 seconds of object interaction used to determine preference scores. Any animal with less than 15 seconds of object exploration were excluded from analysis.

Male F344 rats [4] = assay: Novelty suppressed feeding (NSF) depression assay; type: in vivo, rat; details: 1x per day for 21 days
Description: Twenty-four hours prior to behavioral testing, all food is removed from the home cage. At the time of testing a single pellet is placed in the center of a novel arena. Animals are placed in the corner of the arena and latency to eat the pellet is recorded. […] Animals receive compound daily for 21 days and testing is performed on day 21. A decreased latency to eat the food pellet is indicative of both neurogenesis and antidepressant activity.
Twenty-four hours prior to behavioral testing, all food is removed from the home cage. At the time of testing a single pellet is placed in the center of a novel arena. Animals are placed in the corner of the arena and the latency (in time) to eat the pellet is recorded. […] Animals receive compound daily for 21 days and testing is performed on day 21. A decreased latency to eat the food pellet is indicative of both neurogenesis and antidepressant activity.

[5] = tested on: granule cell layer of the dentate gyrus; assay: In vivo neurogenesis (BrdU positive cell counts); parameters: species or system rat; details: 0.5 mg/kg buspirone, 3.0 mg/kg melatonin or both, i.p., 1x per day for 28 days
Description: BrdU was administered once daily between days 9 and 14 (100 mg/kg/day, i.p., n=12 per dose group). […] Data are presented as percent change in BrdU positive cells per cubic mm dentate gyrus.

[6] = Rat body weight during chronic dosing; details: buspirone 0.5 and 5.0 mg/kg i.p., 1x per day for 28 days

- EC50 [1]: 9.4 µM
- EC50 ([2]; Homo sapiens, Neural stem cell, agent alone, hNSC): 5.7 µM
Structure (SMILES): O=C1CC2(CCCC2)CC(=O)N1CCCCN1CCN(c2ncccn2)CC1 [buspirone]
- maximum astrocyte differentiation ([2]; percent of positive control, agent alone or in combination): 60%
- preference for the novel object (visits, time spent) (Male F344 rats [3]): did not increase preference for the novel object; also recorded: did not demonstrate a significant effect on cognition
- latency to eat the food pellet (percent baseline) (Male F344 rats [4]; 0.5 mg/kg buspirone, 3.0 mg/kg melatonin or both, i.p.): did not significantly reduce the latency to eat the food pellet
- latency to eat the food pellet (Male F344 rats [4]; buspirone 0.5 and 5.0 mg/kg i.p.): did not significantly reduce the latency to eat the food pellet; also recorded: did not demonstrate a significant effect on novelty suppressed feeding
- BrdU positive cells per cubic mm dentate gyrus (percent change) [5]: did not significantly change the number of BrdU positive cells
- mean body weight [6]: dose-dependent decrease in mean body weight
